The IC50 is the concentration needed to halve the response being measured.

The values that follow come from BindingDB's records for patent US20240262826 (Blueprint Medicines, 2024).

SMILES strings stand for the structures.

Mast/stem cell growth factor receptor Kit, sequence (P10721 whole entry): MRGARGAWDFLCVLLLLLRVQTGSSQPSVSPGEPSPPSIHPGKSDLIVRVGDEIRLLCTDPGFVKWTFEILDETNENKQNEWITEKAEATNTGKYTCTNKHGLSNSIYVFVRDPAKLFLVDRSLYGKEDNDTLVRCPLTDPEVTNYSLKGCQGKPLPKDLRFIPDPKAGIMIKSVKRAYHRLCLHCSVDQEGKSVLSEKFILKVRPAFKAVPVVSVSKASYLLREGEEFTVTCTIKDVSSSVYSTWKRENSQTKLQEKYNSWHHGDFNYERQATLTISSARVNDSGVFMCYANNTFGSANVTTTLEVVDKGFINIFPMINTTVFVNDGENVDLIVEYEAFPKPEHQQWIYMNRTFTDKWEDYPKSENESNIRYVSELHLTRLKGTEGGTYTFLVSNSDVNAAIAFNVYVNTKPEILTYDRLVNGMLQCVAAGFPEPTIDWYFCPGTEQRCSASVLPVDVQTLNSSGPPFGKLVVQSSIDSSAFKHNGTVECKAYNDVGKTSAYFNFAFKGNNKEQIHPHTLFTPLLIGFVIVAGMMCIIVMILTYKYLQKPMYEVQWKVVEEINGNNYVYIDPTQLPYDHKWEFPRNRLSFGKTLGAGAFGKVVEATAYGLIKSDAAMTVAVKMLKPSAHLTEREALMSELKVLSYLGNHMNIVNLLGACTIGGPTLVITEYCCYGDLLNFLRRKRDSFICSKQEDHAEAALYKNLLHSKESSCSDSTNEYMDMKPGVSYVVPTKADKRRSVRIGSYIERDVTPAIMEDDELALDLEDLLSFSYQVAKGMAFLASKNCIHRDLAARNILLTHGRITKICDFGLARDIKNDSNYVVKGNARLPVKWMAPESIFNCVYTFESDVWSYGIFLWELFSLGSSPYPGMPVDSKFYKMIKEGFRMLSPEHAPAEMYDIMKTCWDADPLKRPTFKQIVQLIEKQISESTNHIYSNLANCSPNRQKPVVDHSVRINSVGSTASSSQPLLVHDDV

This experiment concerns the target Mast/stem cell growth factor receptor Kit (Homo sapiens, UniProt P10721). As to the kind of experiment: Biochemical Phospho c-Kit Inhibition Assay. The method, then: For the PathScan phospho c-kit (Tyr719) sandwich ELISA: M-07e cells were resuspended at 2×10^6 cells/mL in phenol red free, serum-free, GM-CSF-free Iscove's Modified Dulbecco's Medium (IMDM) media with 1% Penicillin-Streptomycin. The cells were then dispensed into the wells of a U-bottom, 96-well plate at 50 uL per well using a multichannel pipet. The plate was allowed to incubate at 37° C. in a humidified tissue culture incubator for 4 hours.After 4 hours of incubation, each well was dosed with 6.25 uL of test compound at a final DMSO concentration of 0.25% for 60 min at 37° C. to generate an 8-point dose concentration series of test compounds in duplicate. Cells were then incubated for 1 hour at 37° C. in a humidified tissue culture incubator. Next, human SCF at 500 ng/mL was added to the appropriate wells at 6.25 uL/well and the plate was shaken at 450 rpm at room temperature for 10 minutes. AlphaLISA 5× Lysis Buffer supplemented with 1× protease and phosphatase inhibitor was then added at 16 uL/well. The plate was sealed with an adherent cover and shaken at 4° C. at 600 rpm for 30 minutes. After this period of lysis, the plate was stored at −80° C. When the 96-well plate containing M07e lysates was ready to be processed, the plate was brought to room temperature and 40 μl from each well was transferred to the wells of a PathScan Phospho-c-Kit (Tyr719) Sandwich ELISA plate (CST, Catalog #7298). The ELISA plate was sealed with an adherent cover and incubated for 2 hours at 37° C. Next, the wells were washed 4 times with the provided 1× Wash Buffer, and 100 uL/well of reconstituted Detection Antibody was added to each well, the plate sealed with an adherent cover, and incubated at 37° C. for 1 hour. The wash procedure was repeated and 100 uL/well of reconstituted HRP-Linked secondary antibody was added. The plate was sealed with an adherent cover and incubated at 37° C. for 1 hour. The wash procedure was repeated and 100 uL/well of TMB Substrate was added. The plate was incubated for 10 minutes at room temperature or until the positive reaction elicited a blue color in the appropriate wells. 100 uL/well of STOP solution was added and shaken gently for a few seconds a microplate reader or conventional spectrophotometer e.g., a Perkin Elmer Envision multimode plate reader, part #2105-0010.
Molecule `Cc1ccc(-c2nnn(C3CC(F)(F)C3)n2)cc1NC(=O)c1cnn2ccc(N3CC[C@H]3CO)cc12` [US20240262826, Compound 104] gave an IC50 of 3.5 nM. Under `COCCOC[C@@H](O)Cn1cc(-c2ccn3ncc(C(=O)Nc4cc(-c5nnn(C6CC6)n5)c(C)cc4Cl)c3c2)cn1` [US20240262826, Compound 261] stands 1.7 nM; under `Cc1cnn(-c2ccc(C)c(NC(=O)c3cnn4ccc(-c5cnn(C[C@H]6CNCCO6)c5)cc34)c2)n1` [US20240262826, Compound 205], 8.2 nM; under `Cc1ccc(-c2nnn(CCOCC(F)(F)F)n2)cc1NC(=O)c1cnn2ccc(-c3cn[nH]c3)cc12` [US20240262826, Compound 197], 1.4 nM. `O=C(Nc1cc(-c2nnn(C3CC(F)(F)C3)n2)c(Cl)cc1Cl)c1cnn2ccc(N3CCOCC3)cc12` [US20240262826, Compound 167] displayed an IC50 of 7.3 nM.
